#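 96-well plates; 48 h exposure; 5 concentrations. Endpoints by linear interpolation between flanking doses. Not reached: highest tested concentration assigned. GI50 marks 50% less growth.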 Activity calls are given as the source filed them. Rule as the data show it: active = GI50 up to about 1.1 µM and inactive = higher.
# How the values were obtained:
# Assay in all cases: inhibition of tumour cell growth, NCI panel, 48 h
# UACC-62 = system: UACC-62
# K562 = system: K562
# UACC-257 = system: UACC-257
# HT-29 = system: HT-29
# CAKI-1 = system: CAKI-1
# SW-620 = system: SW-620
# HCT-15 = system: HCT-15
# HCC 2998 = system: HCC 2998
# A498 = system: A498
# SNB-19 = system: SNB-19
# IGROV-1 = system: IGROV-1
# OVCAR-4 = system: OVCAR-4
# RXF 393 = system: RXF 393
# SNB-78 = system: SNB-78
# NCI-H460 = system: NCI-H460
# RXF 631 = system: RXF 631
# NCI-H23 = system: NCI-H23
# SF-539 = system: SF-539
# SNB-75 = system: SNB-75
# SN12C = system: SN12C
# HOP-62 = system: HOP-62
# CCRF-CEM = system: CCRF-CEM
# SK-MEL-2 = system: SK-MEL-2
# OVCAR-3 = system: OVCAR-3
# HOP-92 = system: HOP-92
# OVCAR-8 = system: OVCAR-8
# SF-295 = system: SF-295
# HOP-18 = system: HOP-18
# SK-MEL-5 = system: SK-MEL-5
# U-251 = system: U-251
# HL-60 = system: HL-60
# LXFL 529 = system: LXFL 529
# A549 = system: A549
# OVCAR-5 = system: OVCAR-5
# DMS-114 = system: DMS-114
# KM12 = system: KM12
# M19-MEL = system: M19-MEL
# 786-0 = system: 786-0
# UO-31 = system: UO-31
# SK-MEL-28 = system: SK-MEL-28
# COLO 205 = system: COLO 205
# KM-20L2 = system: KM-20L2
# NCI-H522 = system: NCI-H522
# Malme-3M = system: Malme-3M
# SK-OV-3 = system: SK-OV-3
# ACHN = system: ACHN
# M14 = system: M14
# TK-10 = system: TK-10
# HCT-116 = system: HCT-116
# SF-268 = system: SF-268
# EKVX = system: EKVX
# LOX IMVI = system: LOX IMVI
# MOLT-4 = system: MOLT-4
# NCI-H226 = system: NCI-H226
# DLD-1 = system: DLD-1
# MDA-MB-435 = system: MDA-MB-435
# MCF7 = system: MCF7
# DMS-273 = system: DMS-273
structure (smiles),measurement,setting,value
CCN(CC)CCOC(c1ccccc1)c1ccccc1.CCOC(=O)Nc1ccc(S(=O)(=O)OC)cc1.CCOC(=O)Nc1ccc(S(=O)(=O)OC)cc1.Nc1ccc(C(=O)O)c(O)c1,GI50,UACC-62,> 100 µM (inactive)
same,GI50,K562,> 100 µM (inactive)
same,GI50,UACC-257,> 100 µM (inactive)
same,GI50,HT-29,> 100 µM (inactive)
same,GI50,CAKI-1,> 100 µM (inactive)
same,GI50,SW-620,> 100 µM (inactive)
same,GI50,HCT-15,> 100 µM
same,GI50,HCC 2998,> 100 µM (inactive)
same,GI50,A498,> 100 µM (inactive)
same,GI50,SNB-19,> 100 µM (inactive)
same,GI50,IGROV-1,> 100 µM (inactive)
same,GI50,OVCAR-4,> 100 µM (inactive)
same,GI50,RXF 393,> 100 µM (inactive)
same,GI50,SNB-78,> 100 µM (inactive)
same,GI50,NCI-H460,> 100 µM (inactive)
same,GI50,RXF 631,> 100 µM (inactive)
same,GI50,NCI-H23,> 100 µM (inactive)
same,GI50,SF-539,> 100 µM (inactive)
same,GI50,SNB-75,> 100 µM (inactive)
same,GI50,SN12C,> 100 µM (inactive)
same,GI50,HOP-62,> 100 µM (inactive)
same,GI50,CCRF-CEM,> 100 µM (inactive)
same,GI50,SK-MEL-2,> 100 µM (inactive)
same,GI50,OVCAR-3,> 100 µM (inactive)
same,GI50,HOP-92,> 100 µM (inactive)
same,GI50,OVCAR-8,> 100 µM (inactive)
same,GI50,SF-295,> 100 µM (inactive)
same,GI50,HOP-18,> 100 µM (inactive)
same,GI50,SK-MEL-5,> 100 µM (inactive)
same,GI50,U-251,> 100 µM (inactive)
same,GI50,HL-60,> 100 µM (inactive)
same,GI50,LXFL 529,> 100 µM (inactive)
same,GI50,A549,> 100 µM (inactive)
same,GI50,OVCAR-5,> 100 µM (inactive)
same,GI50,DMS-114,> 100 µM (inactive)
same,GI50,KM12,> 100 µM (inactive)
same,GI50,M19-MEL,> 100 µM (inactive)
same,GI50,786-0,> 100 µM (inactive)
same,GI50,UO-31,> 100 µM (inactive)
same,GI50,SK-MEL-28,> 100 µM (inactive)
same,GI50,COLO 205,> 100 µM (inactive)
same,GI50,KM-20L2,> 100 µM (inactive)
same,GI50,NCI-H522,> 100 µM (inactive)
same,GI50,Malme-3M,> 100 µM (inactive)
same,GI50,SK-OV-3,> 100 µM (inactive)
same,GI50,ACHN,> 100 µM (inactive)
same,GI50,M14,> 100 µM (inactive)
same,GI50,TK-10,> 100 µM (inactive)
same,GI50,HCT-116,> 100 µM (inactive)
same,GI50,SF-268,> 100 µM (inactive)
same,GI50,EKVX,> 100 µM (inactive)
same,GI50,LOX IMVI,> 100 µM (inactive)
same,GI50,MOLT-4,> 100 µM (inactive)
same,GI50,NCI-H226,> 100 µM (inactive)
same,GI50,DLD-1,> 100 µM (inactive)
CC[C@H]1CN2CCc3cc(OC)c(OC)cc3[C@@H]2C[C@@H]1C[C@H]1NCCc2cc(OC)c(OC)cc21,GI50,K562,0.0104 µM (active)
same,GI50,RXF 631,0.0311 µM (active)
same,GI50,HOP-18,0.0578 µM (active)
same,GI50,HL-60,0.0148 µM (active)
same,GI50,LXFL 529,0.0276 µM (active)
same,GI50,MDA-MB-435,0.0188 µM (active)
same,GI50,KM-20L2,0.0652 µM (active)
same,GI50,NCI-H522,0.0109 µM (active)
same,GI50,MCF7,0.00347 µM (active)
same,GI50,DMS-273,0.043 µM (active)
same,GI50,HCT-116,0.0149 µM (active)
same,GI50,MOLT-4,0.0161 µM (active)
same,GI50,DLD-1,0.0358 µM (active)
